The values that follow are results of earlier work, collected in patent US20110160158A1, “METHODS OF TREATMENT OF BIPOLAR DISORDER” (REPLIGEN CORPORATION, priority 2008, published 2011).

The test system of data set [1] is children with mitochondrial disease. Conditions: 2 g/m^2 three times daily for up to two years; cited from earlier work.
In data set [2] the test system is patients undergoing chemotherapy with 5-fluorouracil. Conditions: 6 g four times a day; cited from earlier work.

Consider `CC(=O)OC[C@H]1O[C@@H](n2ccc(=O)[nH]c2=O)[C@H](OC(C)=O)[C@@H]1OC(C)=O` [TAU, Triacetyluridine], for which the Adverse events result in data set [1] is on record as “no adverse events were reported”. For the same molecule, the Adverse effects result in data set [2] is given as “no adverse effects”.
